From patent US11447522B2, “Potent soft anti-inflammatory corticosteroid compounds and uses thereof” (Bodor Laboratories, Inc., priority 2017, dated 2022)
Where two headings read alike, the source gives them in different places.

What was measured:
[1] = system: TNF α-production of LPS-stimulated blood cells; test: TNF-α production of lipopolysaccharide-stimulated human blood; format: cell-based
Experimental: (§1) The in vitro anti-inflammatory effect of ED and its analogs was assessed using LPS-induced TNF α-release under various conditions (diluted or undiluted whole human blood, preincubation with sera) to determine the intrinsic anti-inflammatory activity and systemic biological stability of the various compounds.
(§2) Commercially available human cytokine ELISA sets were used. TNF-α and GM-CSF sets were purchased from BD Pharmingen, San Diego, Calif., USA) and the IL-1β set was obtained from R&D Systems (Minneapolis, Minn., USA). ELISA was performed according to the manufacturer's protocol. Cell-free supernatants were tested in duplicate. Detection limits were 7.8 pg/ml for TNF-α, 4.7 pg/ml for GM-CSF, and 3.9 pg/ml for IL-1β. Results were expressed as the mean percentage of inhibition. IC50 values for test compounds were calculated by linear regression.
Peripheral blood from healthy donors was collected aseptically into sterile heparinized (Vacutainer™) tubes. Whole blood samples from each individual were parallel used both undiluted and after 5-fold dilution with RPMI-1640 medium in every experiment. Blood samples were distributed into 24-well plates and incubated with serial concentrations of the test compounds and 1 μg/ml lipopolysaccharide for 24 h at 37° C. in a CO2 thermostat. Controls were treated with lipopolysaccharide and the vehicle (PBS or 0.01% dimethyl sulfoxide in PBS). After incubation, cell-free supernatants were separated by centrifugation (1000 g for 10 minutes) and stored at −20° C. until determination of the amount of TNF-α. Test compounds were examined in blood samples from five different individuals. Two parallel cultures per treatments were run.

[2] = system: mitogen-induced proliferation of PBMC; test: Proliferation of lectin-stimulated peripheral mononuclear cells; format: cell-based, human; settings: read-out: Prolif.**: Inhibition of mitogen-induced proliferation of PBMC
Experimental: Mononuclear cells from heparinized peripheral blood of healthy donors were isolated on suitable gradient (Optiprep solution, 1.077 g/ml). Serial dilutions of the test compounds (ranging from 2×10^−6 to 2×10^−8 M) were made in 100 μl of medium per well of sterile round-bottomed 96-well microtiter plate. Control wells contained culture medium only. 100 μl of cell suspension (10^6 cells/ml), containing concanavalin A (2 μg/ml) was added to each well. […] All cultures were done in triplicate. Microtiter plates were incubated for 72 h at 37° C., in 5% CO2 containing humidified atmosphere. For the last 18 h of incubation, [^3H]thymidine was added to the cells cultures, at 0.1 μCi/well final concentration. At the end of the incubation, cells were harvested to glass microfiber filter (Whatman G/F) and associated radioactivity was determined by liquid scintillation.

[3] = system: TNF-α production of LPS-stimulated whole blood cells; test: Stability: inhibition of TNF-α production with or without preincubation of the compounds in human plasma/serum; format: cell-based; settings: for potency and softness compared with the corresponding compounds 11 and 15: see Table 1
Experimental: as §1, §2
Mononuclear cells from peripheral blood of healthy donors were isolated on Ficoll-gradient. One million cells in 0.9 ml of RPMI 1640 medium were distributed into 24-well plates and serial concentrations of the test compounds, made in fresh human serum either instantly or 18 h previously, were added (0.05 ml) together with the lipopolysaccharide (0.05 ml; 1 μg/ml final concentration). Preincubation of the compounds with serum was carried out at 37° C. Processing of the cultures was done as described above.

[4] = system: ovalbumin sensitized and challenged Brown Norway rats; test: Airway changes of ovalbumin sensitized and challenged Brown Norway rats, intratracheal administration; format: in vivo; settings: for AHR (airways hyperreactivity) ED50: relative response to maximal acetylcholine dose
[5] = Stability in the presence of human plasma (HPLC/MS/MS); format: in vitro ADME; settings: 37° C.
Experimental: Etiprednol dicloacetate (BNP-166) was added to freshly prepared human plasma of healthy donors at a concentration of 5 ng/ml, and were incubated at 37° C. for different intervals. After incubation the amount of the original compound (ethyl-17α-dichloroacetoxy-11β-hydroxyandostra-1,4-diene-3-one-17β-carboxylate), and one of its main metabolite, M-OH (17α,11β-dihydroxyandostra-1,4-diene-3-one-17β-carboxylate) were determined using an HPLC/MS/MS method. In brief: Fluocinolone acetonide served as internal standard (20 ng/ml), samples were extracted with a liquid-liquid extraction on Extrelut® columns, and were separated on a Purospher STAR 30×2 mm (3 μm) reversed phase column at a flow rate of 0.3 ml/min, using a linear gradient with a mobile phase system containing acetonitrile, water and acetic acid. Determination were performed on a triple quadrupole mass spectrometer (Perkin-Elmer SCIEX API 2000) supplied with an electrospray interface operated in the positive ionization mode. The multiple ion monitoring, parent→daughter ion transitions of 485.2→265.2, 375.2→265.2 and 495.2→337.2 were used for the quantification of etiprednol dicloacetate, its M-OH metabolite and for the internal standard respectively. Results are expressed as peak areas normalized to the internal control. Stability of the selected ED analogs (10, 11, 13, 17, 21, 25) were determined as described above for ED (3).

[6] = diluted blood 1:5, read-out: TNFα* a: Inhibition of TNF α-production of LPS-stimulated blood cells
[7] = undiluted blood, read-out: TNFα* b: Inhibition of TNF α-production of LPS-stimulated blood cells
[8] = non-preincubated in human plasma, read-out: Stability*** c: Inhibition of TNF-α production of LPS-stimulated whole blood cells
[9] = preincubated overnight in human plasma, read-out: Stability*** d: Inhibition of TNF-α production of LPS-stimulated whole blood cells
[10] = intratracheal, 2 hours prior challenge
[11] = intratracheal, 2 hours prior challenge, minimal statistically significantly effective dose

SMILES | IC50 [1, 6] [nM] | IC50 [1, 7] [nM] | IC50 [2] [nM] | IC50 [3, 8] [nM] | IC50 [3, 9] [nM] | further results
CCOC(=O)[C@@]1(OC(=O)C(Cl)Cl)[C@@H](C)C[C@H]2[C@@H]3CCC4=CC(=O)C=C[C@]4(C)[C@@]3(F)[C@@H](O)C[C@@]21C [Compound 11, Ethyl 17α-dichloroacetoxy-9α-fluoro-16β-methyl-11β-hydroxy-3-oxoandrosta-1,4-diene-17β-carboxylate] | 1.7 ± 2 | 7.1 ± 4 | 0.012 | 16 | 18 | overall in vivo activity compared with the parent steroid ([4]; Table 2 parameters): does not represent significant improvement over ED, except in mucus production; Edema formation ED50 [4, 10]: 93 µg/kg; Eosinophilia BALF ED50 [4, 10]: >100 µg/kg; Eosinophilia Peribronchial ED50 [4, 10]: 10.3 µg/kg; Mucus production ED50 [4, 10]: <1 µg/kg; Mucus production, second line (dose type not given) [4, 10]: <1 µg/kg; AHR (airways hyperreactivity) MSED [4, 11]: 20.0 µg/kg; Edema formation MSED [4, 11]: 0.5 µg/kg; Eosinophilia Peribronchial MSED [4, 11]: 12.0 µg/kg; AHR (airways hyperreactivity) ED50 [4, 10]: 19.4 µg/kg
COC(=O)C1(OC(=O)C(Cl)Cl)C(C)CC2C3CC(F)C4=CC(=O)C=CC4(C)C3(F)C(O)CC21C (stereo not drawn) [Compound 14, Methyl 6α,9α-difluoro-17α-dichloroacetoxy-16β-methyl-11β-hydroxy-3-oxoandrosta-1,4-diene-17β-carboxylate] | 0.8 ± 0.6 | 1.7 ± 0.9 | < 0.01 |  |  | 
C[C@H]1C[C@H]2[C@@H]3CCC4=CC(=O)C=C[C@]4(C)[C@@]3(F)[C@@H](O)C[C@]2(C)[C@@]1(OC(=O)C(Cl)Cl)C(=O)OCCl [Compound 12, Chloromethyl 17α-dichloroacetoxy-9α-fluoro-16β-methyl-11β-hydroxy-3-oxoandrosta-1,4-diene-17β-carboxylate] | 20 ± 8 | 35 ± 12 | 0.05 ± 0.12 |  |  | 
CCC(=O)O[C@]1(C(=O)SCF)[C@H](C)C[C@H]2[C@@H]3C[C@H](F)C4=CC(=O)C=C[C@]4(C)[C@@]3(F)[C@@H](O)C[C@@]21C [FLU, fluticasone propionate] |  |  |  |  |  | Edema formation ED50 [4, 10]: 2.8 µg/kg; Eosinophilia BALF ED50 [4, 10]: >100 µg/kg; Eosinophilia Peribronchial ED50 [4, 10]: 10.5 µg/kg; Eosinophilia Perivascular ED50 [4, 10]: 45.0 µg/kg; Mucus production ED50 [4, 10]: <1.0 µg/kg; Mucus production, second line (dose type not given) [4, 10]: 1.0 µg/kg; BALF protein ED50 ([4]; intratracheal, 2 hours prior challenge, broncho-alveolar lavage fluid): 11.2 µg/kg; AHR (airways hyperreactivity) MSED [4, 11]: 0.1 µg/kg; BALF protein MSED [4, 11]: 10.0 µg/kg; Edema formation MSED [4, 11]: 1.0 µg/kg; Eosinophilia BALF MSED [4, 11]: 10.0 µg/kg; Eosinophilia Peribronchial MSED [4, 11]: 1.0 µg/kg; Eosinophilia Perivascular MSED [4, 11]: 10.0 µg/kg; AHR (airways hyperreactivity) ED50 [4, 10]: 0.14 µg/kg
CCOC(=O)[C@@]1(OC(=O)C(Cl)Cl)[C@@H](C)C[C@H]2[C@@H]3C[C@H](F)C4=CC(=O)C=C[C@]4(C)[C@@]3(F)[C@@H](O)C[C@@]21C [Compound 15, Ethyl 6α,9α-difluoro-17α-dichloroacetoxy-16β-methyl-11β-hydroxy-3-oxoandrosta-1,4-diene-17β-carboxylate] | 2 | 14 | < 0.01 |  |  | 
CC1CC2C3CC(F)C4=CC(=O)C=CC4(C)C3(F)C(O)CC2(C)C1(OC(=O)C(Cl)Cl)C(=O)SCCl (stereo not drawn) [Compound 26, S-Chloromethyl 17α-dichloroacetoxy-6α,9α-difluoro-11β-hydroxy-16α-methyl-3-oxoandrosta-1,4-diene-17β-carbothioate] | 6 | 12 | 3 |  |  | 
C[C@H]1C[C@H]2[C@@H]3CCC4=CC(=O)C=C[C@]4(C)[C@@]3(F)[C@@H](O)C[C@]2(C)[C@@]1(OC(=O)C(Cl)Cl)C(=O)OCCO [Compound 13, 2-Hydroxyethyl 17α-dichloroacetoxy-9α-fluoro-16β-methyl-11β-hydroxy-3-oxoandrosta-1,4-diene-17β-carboxylate] | 4.6 ± 6 | 5.8 ± 5 |  | 4.5 | 53.5 | potency and softness compared with the corresponding compounds 11 and 15 [3]: more potent but softer; stability in the presence of human plasma [5]: particularly stable
COC(=O)[C@@]1(OC(=O)C(Cl)Cl)[C@@H](C)C[C@H]2[C@@H]3CCC4=CC(=O)C=C[C@]4(C)[C@@]3(F)[C@@H](O)C[C@@]21C [Compound 10, Methyl 17α-dichloroacetoxy-9α-fluoro-16β-methyl-11β-hydroxy-3-oxoandrosta-1,4-diene-17β-carboxylate] | 4 ± 3 | 20 ± 10 | < 0.01 | 1.7 | 10.2 | 
C[C@H]1C[C@H]2[C@@H]3C[C@H](F)C4=CC(=O)C=C[C@]4(C)[C@@]3(F)[C@@H](O)C[C@]2(C)[C@@]1(OC(=O)C(Cl)Cl)C(=O)OCCO [Compound 17, 2-Hydroxyethyl 6α,9α-difluoro-17α-dichloroacetoxy-16β-methyl-11β-hydroxy-3-oxoandrosta-1,4-diene-17β-carboxylate] | < 1 | 3.7 ± 2.6 | 0.13 ± 0.02 | 1.9 | 19.2 | potency and softness compared with the corresponding compounds 11 and 15 [3]: more potent but softer; stability in the presence of human plasma [5]: particularly stable
C[C@@H]1C[C@H]2[C@@H]3C[C@H](F)C4=CC(=O)C=C[C@]4(C)[C@@]3(F)[C@@H](O)C[C@]2(C)[C@@]1(OC(=O)C(Cl)Cl)C(=O)OCCl [Compound 22, Chloromethyl 17α-dichloroacetoxy-6α,9α-difluoro-11β-hydroxy-16α-methyl-3-oxoandrosta-1,4-diene-17β-carboxylate] | 4 | 4 | 0.02 |  |  | 
C[C@@H]1C[C@H]2[C@@H]3C[C@H](F)C4=CC(=O)C=C[C@]4(C)[C@@]3(F)[C@@H](O)C[C@]2(C)[C@@]1(OC(=O)C(Cl)Cl)C(=O)OCF [Compound 21, Fluoromethyl 17α-dichloroacetoxy-6α,9α-difluoro-11β-hydroxy-16α-methyl-3-oxoandrosta-1,4-diene-17β-carboxylate] | 1.4 | 4.5 | 9 | 1.4 | 25 | stability in the presence of human plasma [5]: particularly stable
C[C@H]1C[C@H]2[C@@H]3C[C@H](F)C4=CC(=O)C=C[C@]4(C)[C@@]3(F)[C@@H](O)C[C@]2(C)[C@@]1(OC(=O)C(Cl)Cl)C(=O)OCCl [Compound 16, Chloromethyl 6α,9α-difluoro-17α-dichloroacetoxy-16β-methyl-11β-hydroxy-3-oxoandrosta-1,4-diene-17β-carboxylate] | 0.4 | 5.1 ± 1.7 | 26 ± 26 |  |  | 
